Laboratory results reported in the supplement of paper PMC10307832.

Tests used:
Assay in all cases: relative viability (nuclei count vs DMSO), 5 days (fraction); higher = more cells survive
[1] = compound: COC1=CC=C(C=C1)CN2C=CC3=C2C=C(C=C3)C(=O)NO + O=C(c1cc(Cc2n[nH]c(=O)c3ccccc23)ccc1F)N1CCN(C(=O)C2CC2)CC1 [Olaparib] (partner 8 µM)
Outline: (§1)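 Five library-drug doses in √10 steps were combined with a fixed anchor-drug dose, or a single drug was given alone, by pin tool to lung cancer cell lines in 1536-well plates the day after seeding. Nuclei were stained and counted after 5 days. Relative viability is the nuclei count in treated wells over that in vehicle wells, taken as the median of duplicate plates.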

[2] = compound: COC1=CC=C(C=C1)CN2C=CC3=C2C=C(C=C3)C(=O)NO + Nc1nc2[nH]cc(CCc3ccc(C(=O)N[C@@H](CCC(=O)O)C(=O)O)cc3)c2c(=O)[nH]1 [Pemetrexed] (partner 0.2 µM)
Outline: as §1

[3] = compound: C[C@]1(c2nc3c(C(N)=O)cccc3[nH]2)CCCN1 [Veliparib] + O=C(CCCCCCC(=O)Nc1ccccc1)NO [Vorinostat] (partner 1 µM)
Outline: as §1

[4] = compound: C[C@]1(c2nc3c(C(N)=O)cccc3[nH]2)CCCN1 [Veliparib] + CS(=O)(=O)N1CCN(Cc2cc3nc(-c4cccc5[nH]ncc45)nc(N4CCOCC4)c3s2)CC1 [Pictilisib] (partner 1 µM)
Outline: as §1

Cell Line	relative viability ([1]; first compound 0.08 µM)	relative viability ([1]; first compound 0.253 µM)	relative viability ([1]; first compound 0.8 µM)	relative viability ([1]; first compound 2.53 µM)	relative viability ([1]; first compound 8 µM)	relative viability ([2]; first compound 0.08 µM)	relative viability ([2]; first compound 0.253 µM)	relative viability ([2]; first compound 0.8 µM)	relative viability ([2]; first compound 2.53 µM)	relative viability ([2]; first compound 8 µM)	relative viability ([3]; first compound 0.02 µM)	relative viability ([3]; first compound 0.06325 µM)	relative viability ([3]; first compound 0.2 µM)	relative viability ([3]; first compound 0.6325 µM)	relative viability ([3]; first compound 2 µM)	relative viability ([4]; first compound 0.02 µM)	relative viability ([4]; first compound 0.06325 µM)	relative viability ([4]; first compound 0.2 µM)	relative viability ([4]; first compound 0.6325 µM)	relative viability ([4]; first compound 2 µM)
201T	0.846	0.833	0.881	0.844	0.832	0.314	0.349	0.322	0.333	0.324	0.922	0.954	0.929	1.16	0.928	0.682	0.623	0.682	0.678	0.658
A549	–	0.38	0.39	0.337	0.252	–	–	–	–	–	–	–	–	–	–	0.526	0.504	0.476	0.455	0.521
A-427	0.251	–	0.71	0.711	0.724	0.923	–	0.965	0.907	0.842	0.813	0.867	0.867	0.842	0.934	0.676	0.734	0.675	0.632	0.625
ABC-1	–	0.745	0.73	0.734	0.87	–	–	–	–	–	–	–	0.979	1.37	0.875	–	0.702	0.609	0.735	0.851
BEN	1.09	1.03	0.95	0.913	0.924	0.729	0.615	0.921	0.725	0.661	0.544	0.615	0.62	0.614	0.593	0.517	0.572	0.594	0.577	0.628
CAL-12T	0.674	0.675	0.709	0.735	0.649	1.2	1.27	1.09	1.1	1.27	0.695	0.834	0.729	0.589	0.886	0.439	0.395	0.522	0.386	0.351
COR-L23	0.256	0.382	0.292	0.369	0.286	0.206	0.2	0.192	0.217	0.197	0.604	0.353	0.408	0.445	0.354	0.722	0.645	0.697	0.536	0.774
COR-L 105	0.558	0.743	0.808	0.715	0.706	0.686	1.08	1.25	0.983	1.04	1.02	0.823	0.869	0.698	0.813	0.364	0.388	0.351	0.391	0.56
Calu-6	–	0.544	0.556	0.602	0.51	–	–	–	–	–	–	–	–	–	–	1.02	0.887	0.892	0.816	0.85
ChaGo-K-1	–	0.459	0.424	0.409	0.324	–	0.266	0.275	0.262	0.255	0.555	0.735	0.662	0.65	0.74	–	0.55	0.86	0.914	0.718
EBC-1	–	0.656	0.748	0.695	0.633	–	–	–	–	–	–	–	–	–	–	0.439	0.38	0.477	0.318	0.42
EKVX	–	0.802	0.739	0.868	0.758	–	0.391	0.371	0.45	0.392	–	0.745	0.789	0.626	0.66	0.427	0.464	0.465	0.361	0.397
EMC-BAC-2	0.315	–	0.524	0.471	0.445	0.428	–	0.451	0.476	0.491	0.606	–	0.646	0.638	0.493	0.483	0.542	0.569	0.524	0.541
EPLC-272H	–	0.716	0.981	0.916	0.686	–	0.342	0.317	0.271	0.322	–	0.457	0.424	0.518	0.474	–	0.227	0.283	0.278	0.0962
H3255	0.549	0.482	0.605	0.579	0.532	0.576	0.519	0.614	0.583	0.583	0.707	0.768	0.793	0.799	0.936	0.476	0.514	0.48	0.458	0.499
HARA	–	0.835	1.09	0.711	0.762	–	0.263	0.277	0.258	0.203	–	0.492	0.521	0.529	0.565	0.498	0.49	0.244	0.398	0.415
HCC-15	0.635	0.71	0.729	0.846	0.728	0.203	0.237	0.243	0.234	0.217	0.838	0.927	0.862	0.803	0.757	0.581	0.748	0.682	0.691	0.662
HCC-44	0.974	0.931	1.01	1	1.06	0.628	0.665	0.585	0.649	0.664	1.07	1.03	1.07	1.06	1.15	0.63	0.566	0.577	0.544	0.644
HCC-78	0.748	0.776	0.815	0.968	0.535	0.901	0.872	0.938	0.918	0.66	0.5	0.437	0.453	0.44	0.452	0.226	0.222	0.267	0.236	0.231
